Values quoted from earlier work, collected in patent US20110271957A1, “Delivery of estrogen and bioequivalents thereof via the pulmonary tract” (BATTELLE MEMORIAL INSTITUTE, priority 2010, published 2011).

Conditions: intranasal delivery route

C[C@]12CC[C@@H]3c4ccc(O)cc4CC[C@H]3[C@@H]1CC[C@@H]2O [estradiol, 17β-estradiol]
bioavailability of administered estradiol: about 25%
